Data published in ChEMBL document CHEMBL5131520, “Synthesis and Antitumor Activity of Diosgenin Hydroxamic Acid and Quaternary Phosphonium Salt Derivatives” (ACS Med Chem Lett, 2022).
Counter-ions that a name gives are not always drawn.

Key:
[1] = system: ASPC1; experiment: Antiproliferative activity against human ASPC1 cells assessed as inhibition of cell growth incubated for 48 hrs by CCK8 assay; assay type: functional, cell-based; conditions: ASPC1, 48 h
[2] = system: NCI-H358; experiment: Antiproliferative activity against human NCI-H358 cells assessed as inhibition of cell growth incubated for 48 hrs by CCK8 assay; assay type: functional, cell-based; conditions: NCI-H358, 48 h
[3] = system: HCT-116; experiment: Antiproliferative activity against human HCT-116 cells assessed as inhibition of cell growth incubated for 48 hrs by CCK8 assay; assay type: functional, cell-based; conditions: HCT-116, 48 h
[4] = system: SW-620; experiment: Antiproliferative activity against human SW-620 cells assessed as inhibition of cell growth incubated for 48 hrs by CCK8 assay; assay type: functional, cell-based; conditions: SW-620, 48 h
[5] = Water solubility of compound; assay type: physicochemical; conditions: buffer

| Compound | IC50 [1] [µM] | IC50 [2] [µM] | IC50 [3] [µM] | IC50 [4] [µM] | solubility [5] |
| --- | --- | --- | --- | --- | --- |
| C[C@@H]1CC[C@@]2(OC1)O[C@H]1C[C@H]3[C@@H]4CC=C5C[C@@H](OC(=O)c6cccc(C(=O)NO)c6)CC[C@]5(C)[C@H]4CC[C@]3(C)[C@H]1[C@@H]2C | 4.96 | 9.54 | 34.4 | 6.8 | Soluble |
| C[C@@H]1CC[C@@]2(OC1)O[C@H]1C[C@H]3[C@@H]4CC=C5C[C@@H](OC(=O)c6nccnc6C(=O)NO)CC[C@]5(C)[C@H]4CC[C@]3(C)[C@H]1[C@@H]2C | 9.29 | 35.5 | 35.8 | > 40 | Soluble |
| C[C@@H]1CC[C@@]2(OC1)O[C@H]1C[C@H]3[C@@H]4CC=C5C[C@@H](OC(=O)/C=C/C(=O)NO)CC[C@]5(C)[C@H]4CC[C@]3(C)[C@H]1[C@@H]2C | 11.4 | 36.8 | 39 | 16.9 | Soluble |
| Cc1cc(C(=O)NO)cc(C(=O)O[C@H]2CC[C@@]3(C)C(=CC[C@H]4[C@@H]5C[C@@H]6O[C@]7(CC[C@@H](C)CO7)[C@@H](C)[C@@H]6[C@@]5(C)CC[C@@H]43)C2)c1 | 7.8 | 15.2 | 32.8 | 10.7 | Soluble |
| C[C@@H]1CC[C@@]2(OC1)O[C@H]1C[C@H]3[C@@H]4CC=C5C[C@@H](OC(=O)CCCCC(=O)NO)CC[C@]5(C)[C@H]4CC[C@]3(C)[C@H]1[C@@H]2C | 2.31 | 12.6 | 38.8 | 1.92 | Soluble |
| C[C@@H]1CC[C@@]2(OC1)O[C@H]1C[C@H]3[C@@H]4CC=C5C[C@@H](OC(=O)CCC(=O)NO)CC[C@]5(C)[C@H]4CC[C@]3(C)[C@H]1[C@@H]2C | 7.99 | 7.47 | 31.8 | 5.22 | Soluble |
| C[C@@H]1CC[C@@]2(OC1)O[C@H]1C[C@H]3[C@@H]4CC=C5C[C@@H](OC(=O)CCCCCCC(=O)NO)CC[C@]5(C)[C@H]4CC[C@]3(C)[C@H]1[C@@H]2C | 22.9 | 23.1 | > 40 | 11.1 | Soluble |
| C[C@@H]1CC[C@@]2(OC1)O[C@H]1C[C@H]3[C@@H]4CC=C5C[C@@H](OC(=O)CCCC[P+](C)(C)C)CC[C@]5(C)[C@H]4CC[C@]3(C)[C@H]1[C@@H]2C.[Br-] | 7.44 | 13.6 | 10.1 | 9.59 | Soluble |
| CCCCCCCC[P+](CCCCCCCC)(CCCCCCCC)CCCCC(=O)O[C@H]1CC[C@@]2(C)C(=CC[C@H]3[C@@H]4C[C@@H]5O[C@]6(CC[C@@H](C)CO6)[C@@H](C)[C@@H]5[C@@]4(C)CC[C@@H]32)C1.[Br-] | 7.63 | 27.1 | 31.4 | 29 | Soluble |
| CC[P+](CC)(CC)CCCCC(=O)O[C@H]1CC[C@@]2(C)C(=CC[C@H]3[C@@H]4C[C@@H]5O[C@]6(CC[C@@H](C)CO6)[C@@H](C)[C@@H]5[C@@]4(C)CC[C@@H]32)C1.[Br-] | 2.62 | 3.51 | 5 | 4.39 | Soluble |
| C[C@@H]1CC[C@@]2(OC1)O[C@H]1C[C@H]3[C@@H]4CC=C5C[C@@H](OC(=O)CCCCCCCCC(=O)NO)CC[C@]5(C)[C@H]4CC[C@]3(C)[C@H]1[C@@H]2C | 15 | 10.4 | 33.4 | 23.4 | Soluble |
| C[C@@H]1CC[C@@]2(OC1)O[C@H]1C[C@H]3[C@@H]4CC=C5C[C@@H](O)CC[C@]5(C)[C@H]4CC[C@]3(C)[C@H]1[C@@H]2C [DISOGENIN] | 63.1 | > 40 | 31.4 | > 40 |  |
| COc1cccc2c1C(=O)c1c(O)c3c(c(O)c1C2=O)C[C@@](O)(C(=O)CO)C[C@@H]3O[C@H]1C[C@H](N)[C@H](O)[C@H](C)O1 [DOXORUBICIN HYDROCHLORIDE] | < 5 | < 5 | > 1.25 | < 5 |  |

Continued, values first:

| IC50 [1] [µM] | IC50 [2] [µM] | IC50 [3] [µM] | IC50 [4] [µM] | solubility [5] | Compound |
| --- | --- | --- | --- | --- | --- |
| 0.313 | 3.52 | 4.15 | 0.873 | Soluble | C[C@@H]1CC[C@@]2(OC1)O[C@H]1C[C@H]3[C@@H]4CC=C5C[C@@H](OC(=O)CCCC[P+](c6ccccc6)(c6ccccc6)C6CCCCC6)CC[C@]5(C)[C@H]4CC[C@]3(C)[C@H]1[C@@H]2C.[Br-] |
| 0.29 | 3.66 | 4.22 | 1.16 | Soluble | C[C@@H]1CC[C@@]2(OC1)O[C@H]1C[C@H]3[C@@H]4CC=C5C[C@@H](OC(=O)CCCC[P+](c6ccccc6)(c6ccccc6)c6cccc(-c7ccccc7)c6)CC[C@]5(C)[C@H]4CC[C@]3(C)[C@H]1[C@@H]2C.[Br-] |
| 0.185 | 4.04 | 4 | 0.448 | Soluble | C[C@@H]1CC[C@@]2(OC1)O[C@H]1C[C@H]3[C@@H]4CC=C5C[C@@H](OC(=O)CCCC[P+](C6CCCCC6)(C6CCCCC6)C6CCCCC6)CC[C@]5(C)[C@H]4CC[C@]3(C)[C@H]1[C@@H]2C.[Br-] |
| 1.09 | 2.18 | 3.99 | 1.17 | Soluble | CCCC[P+](CCCC)(CCCC)CCCCC(=O)O[C@H]1CC[C@@]2(C)C(=CC[C@H]3[C@@H]4C[C@@H]5O[C@]6(CC[C@@H](C)CO6)[C@@H](C)[C@@H]5[C@@]4(C)CC[C@@H]32)C1.[Br-] |
| 0.652 | 1.71 | 4.32 | 6.8 | Soluble | C[C@@H]1CC[C@@]2(OC1)O[C@H]1C[C@H]3[C@@H]4CC=C5C[C@@H](OC(=O)CCCC[P+](c6ccc(Cl)cc6)(c6ccc(Cl)cc6)c6ccc(Cl)cc6)CC[C@]5(C)[C@H]4CC[C@]3(C)[C@H]1[C@@H]2C.[Br-] |
| 2.14 | 4.32 | 32.5 | 2.43 | Soluble | C[C@@H]1CC[C@@]2(OC1)O[C@H]1C[C@H]3[C@@H]4CC=C5C[C@@H](OC(=O)CCCC(=O)NO)CC[C@]5(C)[C@H]4CC[C@]3(C)[C@H]1[C@@H]2C |
| 0.648 | 3.54 | 4.25 | 0.778 | Soluble | C[C@@H]1CC[C@@]2(OC1)O[C@H]1C[C@H]3[C@@H]4CC=C5C[C@@H](OC(=O)CCCC[P+](c6ccccc6)(c6ccccc6)c6ccccn6)CC[C@]5(C)[C@H]4CC[C@]3(C)[C@H]1[C@@H]2C.[Br-] |
| 0.728 | 3.82 | 4.16 | 1.42 | Soluble | C[C@@H]1CC[C@@]2(OC1)O[C@H]1C[C@H]3[C@@H]4CC=C5C[C@@H](OC(=O)CCCC[P+](c6ccc(F)cc6)(c6ccc(F)cc6)c6ccc(F)cc6)CC[C@]5(C)[C@H]4CC[C@]3(C)[C@H]1[C@@H]2C.[Br-] |
